Test results as given in patent publication US7695728B2, “2-substituted pyridines, processes for their preparation and their use for controlling harmful fungi” (BASF Aktiengesellschaft, priority 2004, dated 2010).

Compound	melting point
Fc1cccc(Cl)c1-c1c(NC2CCC(c3ccccc3)CC2)cc(-n2cccn2)nc1Cl (stereo not shown) [I-4]	170 °C
Fc1cccc(Cl)c1-c1c(Cl)cc(-n2cccn2)nc1NC1CCC(c2ccccc2)CC1 (stereo not shown) [I-5]	78 °C
CC(C)(C)C1CCC(Nc2nc(-n3cccn3)cc(Cl)c2-c2c(F)cccc2Cl)CC1 (stereo not shown) [I-9]	126 °C
CC(C)Nc1cc(-n2cncn2)nc(Cl)c1-c1c(F)cccc1Cl [I-13, 2-Chloro-3-(2-chloro-6-fluorophenyl)-4-(2-propylamino)-6-([1,2,4]triazol-1-yl)pyridine]	152 °C
CC(C)Nc1nc(-n2cncn2)cc(Cl)c1-c1c(F)cccc1Cl [I-14, 4-chloro-3-(2-chloro-6-fluorophenyl)-2-(2-propylamino)-6-([1,2,4]triazol-1-yl)pyridine]	152 °C
CCC(C)Nc1cc(-n2cccn2)nc(Cl)c1-c1c(F)cccc1Cl (stereo not shown) [I-15]	108 °C
CCC(C)Nc1nc(-n2cccn2)cc(Cl)c1-c1c(F)cccc1Cl (stereo not shown) [I-16]	114 °C
CC1CCN(c2nc(-n3cccn3)cc(Cl)c2-c2c(F)cccc2Cl)CC1 [I-19]	120 °C
Fc1cccc(Cl)c1-c1c(Cl)cc(-n2cccn2)nc1N1CCCC1 [I-20]	158 °C
Fc1cccc(Cl)c1-c1c(N2CCCC2)cc(-n2cccn2)nc1Cl [I-21]	161 °C
Fc1cccc(Cl)c1-c1c(NC2CC2)cc(-n2cccn2)nc1Cl [I-22]	164 °C
Fc1cccc(Cl)c1-c1c(Cl)cc(-n2cccn2)nc1NC1CC1 [I-23]	103 °C
Fc1cccc(Cl)c1-c1c(Cl)cc(-c2ccccn2)nc1NC1CCC(c2ccccc2)CC1 (stereo not shown) [I-24]	162 °C
Fc1cccc(Cl)c1-c1c(NC2CCC(c3ccccc3)CC2)cc(-c2ccccn2)nc1Cl (stereo not shown) [I-25]	181 °C
CC(C)(C)C1CCC(Nc2cc(-c3ccccn3)nc(Cl)c2-c2c(F)cccc2Cl)CC1 (stereo not shown) [I-27]	163 °C
CC1CCN(c2cc(-c3ccccn3)nc(Cl)c2-c2c(F)cccc2Cl)CC1 [I-31]	119 °C

Compound	melting point
Fc1cccc(Cl)c1-c1c(NC2CCCCC2)cc(-c2ccccn2)nc1Cl [I-36]	83 °C
CC(C)Nc1nc(-c2ccccn2)cc(Cl)c1-c1c(F)cccc1Cl [I-39]	67 °C
Fc1cccc(Cl)c1-c1c(Cl)cc(-c2ccccn2)nc1N1CCCC1 [I-40]	155 °C
Fc1cccc(Cl)c1-c1c(Cl)cc(-n2cccn2)nc1NC1CCCCC1 [I-43]	152 °C
Fc1cccc(Cl)c1-c1c(NC2CCCCC2)cc(-n2cccn2)nc1Cl [I-44]	112 °C
Cc1cccc(-c2cc(Cl)c(-c3c(F)cccc3Cl)c(NC(C)C)n2)n1 [I-45]	131 °C
CC(C)Nc1cc(-c2nccs2)nc(Cl)c1-c1c(F)cccc1Cl [I-48]	78 °C
Cc1nc(-c2cc(NC(C)C)c(-c3c(F)cccc3Cl)c(Cl)n2)sc1C [I-50]	183 °C
CC(C)Nc1nc(-c2nc3ccccc3s2)cc(Cl)c1-c1c(F)cccc1Cl [I-51]	119 °C
CC(C)Nc1cc(-c2nc3ccccc3s2)nc(Cl)c1-c1c(F)cccc1Cl [I-52]	154 °C
CC1CCN(c2nc(-c3ncccn3)cc(Cl)c2-c2c(F)cccc2Cl)CC1 [I-53]	129 °C
CC1CCN(c2cc(-c3ncccn3)nc(Cl)c2-c2c(F)cccc2Cl)CC1 [I-54]	129 °C
COc1ccc(CCNc2cc(-c3ccccn3)nc(Cl)c2-c2c(F)cccc2Cl)cc1OC [I-56]	78 °C
COc1ccc(CCNc2nc(-n3cccn3)cc(Cl)c2-c2c(F)cccc2Cl)cc1OC [I-57]	59 °C
COc1ccc(CCNc2cc(-n3cccn3)nc(Cl)c2-c2c(F)cccc2Cl)cc1OC [I-58]	201 °C
